Experimental data: patent publication US10413583B2, “Synthetic substrates for enzymes that catalyze reactions of modified cysteines and related methods” (The University of Chicago, priority 2016, dated 2019)

Assays:
[1] = Water solubility of probes (stated in words); assay type: physicochemical
APT1 = biological target: T1, APT1 (Homo sapiens, UniProt O75608); assay: In vitro kinetic assay and emission spectra of DPP-1, DPP-2, DPP-3 with purified APT1 (with detergent); assay type: biochemical
T1 construct: His-tag; made in house; host or cells: E. coli ROSETTA DE3
T1 sequence (O75608 whole entry): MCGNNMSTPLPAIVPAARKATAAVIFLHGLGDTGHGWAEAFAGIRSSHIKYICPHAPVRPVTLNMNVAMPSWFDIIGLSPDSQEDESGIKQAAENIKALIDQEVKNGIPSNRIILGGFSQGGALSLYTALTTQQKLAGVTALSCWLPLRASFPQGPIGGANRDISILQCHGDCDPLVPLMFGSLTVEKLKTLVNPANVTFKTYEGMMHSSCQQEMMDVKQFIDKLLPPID
Description: 50 μL of 7.5 μM DPP1-3 in HEPES (20 mM, pH=7.4, 150 mM NaCl, 0.1% Triton X-100) were added to a 384-well black flat bottom plate (Corning Life Sciences, Corning, N.Y., United States of America) and placed in an Infinite M200 Pro (Tecan, Mannedorf, Switzerland) plate reader at 37° C. for 5 min to warm. 25 μL of either 4-(2-hydroxyethyl)-1-piperazineethanesulfonic acid (HEPES) buffer alone or HEPES buffer containing 150 nM APT1 or APT2, was added using a multi-channel pipette, resulting in a final concentration of 5 μM DPP1-3 and 50 nM APT1 or APT2. Fluorescence intensities (λex 490/9 nm, λem 545/20 nm, Gain 70, No. of flashes 25, Integration time 100 μs and Z-position 20000 μm) were measured at 30 second (s) time intervals for 20 min. At the end of 20 min kinetic run, emission spectra were obtained (λex 485 nm, Aem510-700 nm, Gain 100, No. of flashes 25, Integration time 100 μs and Z-position 20,000 μm).

MDA-MB-231 cells = assay: Flow cytometry of DPP-3 in MDA-MB-231 cells; assay type: cell-based, human; settings: MDA-MB-231; 5 μM DPP-3, 5 min, flow cytometry
Description: (§1) Cells were plated on a 10 cm dish with 10 mL of DMEM/High Glucose (10% FBS, 1% P/S, L-Glutamine, Sodium pyruvate) 36-48 hours prior to the day of experiment and maintained at 37° C., 5% CO2 so as to obtain 80-90% confluency. Cells were washed with DPBS and trypsinized with 1 mL 0.05% Trypsin. 5 mL of DMEM/High Glucose (10% FBS, L-Glutamine, Sodium pyruvate) was added and cells were spun down at 1200 rpm for 3 min. Media was discarded and cells were resuspended in 5 mL of Live Cell Imaging Solution and again spun down at 1200 rpm for 3 min. The cells pellets obtained were resuspended in 3-5 mL of Live Cell Imaging Solution and divided into 500 μL aliquots. The aliquots were treated with either 0.2% DMSO carrier or 1 μM of PalmB/ML348 or 1 μM/5 μM of ML349 inhibitor. After 30 min of incubation at room temperature, 1 μL of 2.5 mM DPP-3 in DMSO was added to each aliquot for a final concentration of 5 μM, and the solutions were mixed. After 5 min incubation at room temperature, fluorescence signal in FITC channel was measured for 10000 cells (5000 for HeLa experiments) on a LSR-Fortessa 4-15 HTS (BD digital instrument, 488 nm laser with 530/30 nm filter for FITC; BD, Franklin Lakes, N.J., United States of America). For analyzing DPP2 in HEK293T cells, the aliquots were treated with either 0.2% DMSO carrier or 2 μM of PalmB, 5 or 20 μM of ML348/ML349 and then analyzed by the protocol as mentioned above. Data was analyzed by FlowJo software version 10.0.8. For comparison of A431 starved versus non-starved, parallel 10 cm dishes of A431 cells were plated in 10 mL of DMEM (high glucose, 10% FBS, 1% P/S), and grown for 36 h. The growth media was removed, and replaced by 10 mL of either DMEM (High glucose) with 10% FBS to maintain “growth” conditions, or DMEM (High glucose) without FBS respectively for “starvation” conditions, and incubated for 14 h. After trypsinization, both plates were treated with 5 mL of DMEM (high glucose) for spinning the cells down, and further processing and analysis were performed as described above by flow cytometry.

MCF-7 cells = assay: Flow cytometry of DPP-3 in MCF-7 cells; assay type: cell-based, human; settings: 5 μM DPP-3, 5 min, flow cytometry
Description: as §1

HeLa cells = assay: Flow cytometry of DPP-3 in HeLa cells; assay type: cell-based, human; settings: 5 μM DPP-3, 5 min, flow cytometry
Description: as §1

HEK293T cells = assay: Live cell fluorescence imaging and flow cytometry of DPP-2 and DPP-3 in HEK293T cells; assay type: cell-based, human; settings: 1 μM DPP-2 for 15 min, microscopy or flow cytometry
Description: HEK293T (650,000 cells per dish) cells were plated with 1.5 mL of Dulbecco's Modified Eagle Medium (DMEM) (High Glucose, 10% fetal bovine serum (FBS)) in a 35 mm glass bottom dish (D35-10-1.5-N; Cellvis, Mountain View, Calif., United States of America) 24 hrs prior to imaging. 30 min before the addition of the DPP probe, the cell culture media was removed and cells were washed with 1 mL of Delbecco's phosphate-buffered saline (DPBS). The media was then replaced with 1 mL of DMEM containing 1 μM Hoechst 33342 and either 0.1% DMSO carrier as a control, 1 or 2 μM Palm B, 0.1, 1.0, or 5 μM ML348, and incubated for 30 min at 37° C. and 5% CO2. The media was removed, the cells were washed with 1 mL of Live Cell Imaging Solution (Thermo Fisher Scientific, Waltham, Mass., United States of America), and 1 mL of 1 μM DPP-2 or DPP-3 in Live Cell Imaging Solution was added to each plate. For ML348 0.1, 1.0, or 5 μM was added along with DPP-2 or DPP-3. After incubation for 15 min at 37° C. and 5% CO2, images were obtained on an inverted epi-fluorescence microscope (Olympus IX83; Olympus Corporation, Tokyo, Japan) attached with EMCCD camera (Photometrics EVOLVE™ Delta; Photometrics, Tucson, Ariz., United States of America) with 40× oil objective (N/A 1.3) for DPP-2 (excitation filter 500/20, dichroic chroma 89007, emission filter 535/30, exposure time 200 ms, EM gain 25), Hoechst 33342: (excitation filter 402/15, emission filter 455/50, dichroic chroma 89013, exposure time 30 ms, EM gain 25), and brightfield (exposure time 5 ms, EM gain 5), and for DPP-3 (exposure time 500 ms, EM gain 150), Hoechst 33342: (exposure time 30 ms, EM gain 25), and brightfield (exposure time 20 ms, EM gain 5). Analyses were performed in ImageJ. For data analysis, the average fluorescence intensity per image in each experimental condition was obtained by selecting regions of interest (ROIs) in the brightfield image. For display, the data were normalized to the average fluorescence intensity of the control conditions. Each experiment was repeated at least three separate times with identical results.
Cells were plated on a 10 cm dish with 10 mL of DMEM/High Glucose (10% FBS, 1% P/S, L-Glutamine, Sodium pyruvate) 36-48 hours prior to the day of experiment and maintained at 37° C., 5% CO2 so as to obtain 80-90% confluency. Cells were washed with DPBS and trypsinized with 1 mL 0.05% Trypsin. 5 mL of DMEM/High Glucose (10% FBS, L-Glutamine, Sodium pyruvate) was added and cells were spun down at 1200 rpm for 3 min. Media was discarded and cells were resuspended in 5 mL of Live Cell Imaging Solution and again spun down at 1200 rpm for 3 min. The cells pellets obtained were resuspended in 3-5 mL of Live Cell Imaging Solution and divided into 500 μL aliquots. The aliquots were treated with either 0.2% DMSO carrier or 1 μM of PalmB/ML348 or 1 μM/5 μM of ML349 inhibitor. After 30 min of incubation at room temperature, 1 μL of 2.5 mM DPP-3 in DMSO was added to each aliquot for a final concentration of 5 μM, and the solutions were mixed. After 5 min incubation at room temperature, fluorescence signal in FITC channel was measured for 10000 cells (5000 for HeLa experiments) on a LSR-Fortessa 4-15 HTS (BD digital instrument, 488 nm laser with 530/30 nm filter for FITC; BD, Franklin Lakes, N.J., United States of America). For analyzing DPP2 in HEK293T cells, the aliquots were treated with either 0.2% DMSO carrier or 2 μM of PalmB, 5 or 20 μM of ML348/ML349 and then analyzed by the protocol as mentioned above. Data was analyzed by FlowJo software version 10.0.8. For comparison of A431 starved versus non-starved, parallel 10 cm dishes of A431 cells were plated in 10 mL of DMEM (high glucose, 10% FBS, 1% P/S), and grown for 36 h. The growth media was removed, and replaced by 10 mL of either DMEM (High glucose) with 10% FBS to maintain “growth” conditions, or DMEM (High glucose) without FBS respectively for “starvation” conditions, and incubated for 14 h. […]

A431 cells = assay: DPP-3 in A431 cells, starvation and EGF stimulation (flow cytometry, microscopy); assay type: cell-based, human; settings: serum starved A431; 1 ng/mL EGF for 15 min; 5 μM DPP-3
Description: as §1
Parallel 35 mm glass bottom dishes (D35-10-1.5-N; Cellvis, Mountain View, Calif., United States of America) of A431 cells (450,000) were plated in 2 mL of DMEM glutamax (high glucose, 10% FBS, 1% P/S), and grown for 36 h. The growth media was removed, and replaced by 1.5 mL of either DMEM (High glucose) with 10% FBS to maintain “growth” conditions, or DMEM (High glucose) without FBS respectively for “starvation” conditions, and incubated for 24 h. […] For data analysis, the average fluorescence intensity per image in each experimental condition was obtained by selecting ROIs in the brightfield image. For display, the data were normalized to the average fluorescence intensity of the control conditions. […]

CCCCCCCC(=O)SC[C@@H](C(=O)N[C@@H](CCCCN)C(=O)OC)N(C)C(=O)Oc1ccc2c(c1)Oc1cc(N(C)C)ccc1C21OC(=O)c2ccccc21 (stereo partly drawn) [DPP-3]
water solubility [1]: water soluble | enhancement in fluorescence signal (APT1; 5 μM probe, 50 nM APT1, 20 min): 400 fold | selectivity for APT1 over APT2 (APT1; in vitro, purified APT1 vs APT2): modest selectivity for APT1 over APT2 | performance as substrate / reaction kinetics (APT1; purified APT1): striking reaction kinetics | detection of endogenous depalmitoylase activities by probe (MDA-MB-231 cells): can detect endogenous depalmitoylase activities | detection of endogenous depalmitoylase activities by probe (MCF-7 cells): can detect endogenous depalmitoylase activities | detection of endogenous depalmitoylase activities by probe (HeLa cells): can detect endogenous depalmitoylase activities | probe fluorescent signal in live cells (HEK293T cells): functions in live cells

EGF: epidermal growth factor, obtained from Gold Biotechnology (NSDSECPLSHDGYCLHDGVCMYIEALDKYACNCVVGYIGERCQYRDLKWWELR; UniProt P01133 971-1023, looked up)
effect on depalmitoylation activity measured by DPP-3 (A431 cells): inhibition of depalmitoylation activity
